Source: patent US5593989A, “Tetracyclic 1,4-oxazine compounds” (Adir et Compagnie, priority 1994, dated 1997)

Key:
[1] = test system: cloned rat D3 receptors vs D2 receptors; assay: D3 vs D2 binding selectivity, cloned rat receptors
Method: (§1) in vitro: by the technique of binding to human and rat D2 and D3 receptors (expressed independently and in a stable manner in CHO cells);
(§2) The affinity of the compounds for human or rat D3 and D2 receptors (expressed independently and in a stable manner in CHO cells) was determined in membrane preparations using [^125 I]-iodosulpiride as radioligand (Sokoloff et al, op. cit.), raclopride (10 μM) determining the non-specific binding. The results are expressed as IC50. The selectivity is expressed by the ratio of IC50 D2 to IC50 D3.

[2] = test system: cloned human D3 receptors vs D2 receptors; assay: D3 vs D2 binding selectivity, cloned human receptors
Method: as §1, §2

[3] = test system: D3 receptor; assay: Hypothermia induced in rats by 7-OH-DPAT; assay type: in vivo, male Wistar rats; details: for ΔT °C.: means ± sem
Method: in vivo: by the capacity of the molecules to modulate hypothermia induced in rats by the D3 dopaminergic agonist, 7-OH-DPAT, control of the body temperature being dependent upon the post-synaptic D3 receptor (M. J. Millan, op. cit.).
The tests were carried out on male Wistar rats weighing 200-250 g, placed in individual cages with free access to food and water. The products were dissolved in distilled water to which several drops of lactic acid are added. The injections were effected in a volume of 1.0 ml/kg by the subcutaneous route. The doses are expressed in base. The rectal temperature of the rats was recorded using a digital thermal probe (Millan et al., J.P.E.T., 1993, 264, p. 1364-1376). The rats were injected with the compound or vehicle, then put back in their cages for 30 minutes. The rats were then given an injection of 7-OH-DPAT (0.16 mg/kg) and put back in their cages. Thirty minutes later, the rectal temperature was measured and the difference to basal values (ΔT° C.) was determined. The inhibitory dose (95% confidence limit) for reducing the effect of 7-OH-DPAT by 50% was calculated according to Finney's method (Statistical Method in Biological Assays, 2nd ed., Hafner Publishing, New York, 1964).

[4] = Forced-swimming test (Porsolt); assay type: in vivo; details: for Period of immobility: means ± sem
Method: The procedure has been described in detail by Porsolt et al. (1978).
The experiment was carried out over two days, the test taking place on the second day. On the first day, the animal was placed for 15 minutes in a glass cylinder (30 cm×.O slashed.20 cm) filled with water, the temperature of which is maintained at 25° C. On the second day, the day of the test, the product or the solvent was administered to the animal by the subcutaneous route 30 minutes before the beginning of the test, At T0, the animal was placed in a cylinder filled with water for the 5 minutes the test lasted. The total period (expressed in seconds) of immobility of the animal was measured.
The inhibitory dose (95% confidence limit) for reducing immobility time by 50% was calculated according to Finney's method (Statistical Method in Biological Assays, 2nd ed., Hafner Publishing, New York, 1964).

In the case of `CCCN1CCO[C@@H]2c3cc4c(cc3CC[C@H]21)CCO4` (relative stereo) [Example 1, trans-3,4,4a,5,6,8,9,11b-octahydrofuro[2,3-b]1,4-oxazino[3,2-h]4-propyl-2H-naphthalene], the “selectivity for D3 receptors compared with D2 receptors, ratio of IC50 D2 to IC50 D3” value (from here on “selectivity … ratio of IC50 D2 to IC50 D3”) [1] was 44, the “selectivity … ratio of IC50 D2 to IC50 D3” value [2] was 45 and the “inhibitory dose (ID50) for reducing the effect of 7-OH-DPAT by 50%” value ([3]; 95% confidence limit in brackets, rats) was 1.6 (0.7-3.7) mg/kg s.c. The “ΔT °C.” value ([3]; Ex 1 0.16 mg/kg s.c., then 7-OH-DPAT 0.16 mg/kg) was -1.8 ± 0.2 °C, the “ΔT °C.” value ([3]; Ex 1 0.63 mg/kg s.c., then 7-OH-DPAT 0.16 mg/kg) was -1.3 ± 0.2 °C and the “ΔT °C.” value ([3]; Ex 1 2.5 mg/kg s.c., then 7-OH-DPAT 0.16 mg/kg, * p < 0.05 versus vehicle/7-OH-DPAT) was “+0.2 ± 0.2 °C”. The “ΔT °C.” value ([3]; Ex 1 10.0 mg/kg s.c., then 7-OH-DPAT 0.16 mg/kg, * p < 0.05 versus vehicle/7-OH-DPAT) was -0.1 ± 0.2 °C, the Period of immobility ([4]; dose 0.63 mg/kg s.c.) was 200.8 ± 17.4 s and the Period of immobility ([4]; dose 1.25 mg/kg s.c.) was 107.1 ± 39.7 s. The Period of immobility ([4]; dose 2.5 mg/kg s.c., * p < 0.05) was 63.1 ± 12.4 s, the Period of immobility ([4]; dose 10.0 mg/kg s.c., * p < 0.05) was 28.2 ± 18.1 s and the ED50 ([4]; sc, 95% confidence limit in brackets, read-out: inhibitory dose (ID50) for reducing immobility time by 50%) was 1.8 mg/kg.
With `CCCN(CCC)[C@@H]1CCc2c(OC)cccc2[C@@H]1C` [(+)UH 232] the “selectivity … ratio of IC50 D2 to IC50 D3” value [2] was 4.8.
With `CCCN[C@@H]1CCc2c(OC)cccc2[C@@H]1C` [AJ 76] the “selectivity … ratio of IC50 D2 to IC50 D3” value [2] was 2.2.
With `CCCN(CCC)C1CCc2ccc(O)cc2C1` (stereo not shown) [Example 7-OH-DPAT, reference compound] the “selectivity … ratio of IC50 D2 to IC50 D3” value [1] was 53 and the “ΔT °C.” value ([3]; injection 1 vehicle, injection 2 7-OH-DPAT 0.16 mg/kg s.c.) was -1.4 ± 0.1 °C.
